One data set relates to M14. Kind of data set: NCI one-dose SRB growth inhibition. The format is cell-based. Conditions: Homo sapiens, M14, 48 h, Melanoma, read-out: GI% M14. The essentials: (§1)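 SRB-based cell growth/viability measurement after a 48-hour compound treatment, carried out under the NCI Drug Evaluation Branch method.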
The next data set has as its system NCI-H23. Briefly: NCI one-dose SRB growth inhibition. It counts as cell-based. Conditions: Homo sapiens, Non-Small Cell Lung Cancer, 48 h, read-out: GI% NCI-H23. A digest of the protocol: as §1
The subject of data set [1] is 60 cancer cell lines (NCI, USA). Kind of data set: NCI one-dose SRB assay, whole panel. The format is cell-based, human. The settings on record: 10 μM; for Sensitive cell lines no.: cell lines with GI% higher than 10%. As for the experimental part:
The antitumor assay was performed according to the protocol of the Drug Evaluation Branch, NCI, Bethesda[24–26]. A 48 h drug exposure protocol was adopted, and sulforhodamine B (SRB) assay[27] was utilized to assess the cell growth and viability, as reported earlier[17]^,[28].
The structures of all the newly synthesized pyridines 5a–l were submitted to the National Cancer Institute (NCI) Developmental Therapeutic Program (www.dtp.nci.nih.gov). […] Nine different types of cancer were tested in this assay: colon, ovarian, prostate, leukemia, melanoma, CNS, renal, breast and lung cancers. A 48 h drug exposure protocol was adopted, and sulforhodamine B (SRB) assay[27] was utilized to assess the cell growth and viability.
For orientation: Sulforhodamine B stains cellular protein and so reports cell mass.

Experimental findings from paper PMC6366416, “Synthesis and in vitro anticancer activity of certain novel 1-(2-methyl-6-arylpyridin-3-yl)-3-phenylureas as apoptosis-inducing agents” (Journal of Enzyme Inhibition and Medicinal Chemistry, 2019) are described below.

Some results are limits rather than exact numbers.

What is called melting point is the temperature of the solid-liquid transition. Molecule `Cc1nc(-c2cccs2)ccc1NC(=O)Nc1ccc(F)cc1` [Compound 5h, 1-(4-Fluorophenyl)-3-(2-methyl-6-(thiophen-2-yl)pyridin-3-yl)urea] yielded a melting point of 217 to 219 °C. For the same molecule, in the data set on M14, the inhibition at 10 µM was under 10%. For the same molecule, the inhibition at 10 µM with NCI-H23 came to 16%. Moreover, the “Sensitive cell lines no.” value in data set [1] worked out at 23.

`Cc1nc(-c2ccc(Cl)cc2)ccc1NC(=O)Nc1ccc2c(c1)OCO2` [Compound 5g, 1-(Benzo[d][1,3]dioxol-5-yl)-3-(6-(4-chlorophenyl)-2-methylpyridin-3-yl)urea] came in with a melting point of 271 to 273 °C. The inhibition at 10 µM with M14 stood at 29%. In addition, the inhibition at 10 µM in the data set on NCI-H23 was under 10%. The “Sensitive cell lines no.” value in data set [1] turned out to be 12.

In turn, `Cc1nc(-c2ccc(Cl)cc2)ccc1NC(=O)Nc1cccc(C(F)(F)F)c1` [Compound 5e, 1-(6-(4-Chlorophenyl)-2-methylpyridin-3-yl)-3-(3-(trifluoromethyl)phenyl)urea] came in with a melting point of 241 to 242 °C. Further, the inhibition at 10 µM in the data set on M14 was under 10%. For the same molecule, in the data set with NCI-H23, the inhibition at 10 µM was under 10%. Also, the “Sensitive cell lines no.” value in data set [1] was 17.

Take `Cc1nc(-c2ccc(F)cc2)ccc1NC(=O)Nc1ccc2c(c1)OCO2` [Compound 5d, 1-(Benzo[d][1, 3]dioxol-5-yl)-3-(6-(4-fluorophenyl)-2-methylpyridin-3-yl)urea]: the melting point lay in the range of 254 to 256 °C. Further, in the data set on M14, the inhibition at 10 µM came to 37%. Besides, the inhibition at 10 µM with NCI-H23 is under 10%. The “Sensitive cell lines no.” value in data set [1] is given as 12.

In turn, `COc1ccc(NC(=O)Nc2ccc(-c3ccc(Cl)cc3)nc2C)cc1` [Compound 5f, 1-(6-(4-Chlorophenyl)-2-methylpyridin-3-yl)-3-(4-methoxyphenyl) urea] registered a melting point of 264 to 265 °C. Moreover, the inhibition at 10 µM with M14 was 38%. Moreover, the inhibition at 10 µM with NCI-H23 is under 10%. For the same molecule, the “Sensitive cell lines no.” value in data set [1] is given as 19.

For the molecule `CCOC(=O)c1ccc(NC(=O)Nc2ccc(-c3cccs3)nc2C)cc1` [Compound 5j, Ethyl 4-(3-(2-methyl-6-(thiophen-2-yl)pyridin-3-yl)ureido)benzoate], the melting point lay within 203 to 204 °C. The inhibition at 10 µM in the data set with M14 stood at 38%. Also, in the data set on NCI-H23, the inhibition at 10 µM was under 10%. Moreover, the “Sensitive cell lines no.” value in data set [1] is 24.

For `CCOC(=O)c1ccc(NC(=O)Nc2ccc(-c3ccc(F)cc3)nc2C)cc1` [Compound 5c, Ethyl 4-(3-(6-(4-fluorophenyl)-2-methylpyridin-3-yl)ureido)benzoate], the melting point fell in the range of 209 to 211 °C. For the same molecule, in the data set on M14, the inhibition at 10 µM was 38%. Further, the inhibition at 10 µM in the data set on NCI-H23 was under 10%. For the same molecule, the “Sensitive cell lines no.” value in data set [1] was 13.

For `Cc1nc(-c2cccs2)ccc1NC(=O)Nc1ccc(Cl)cc1` [Compound 5i, 1-(4-Chlorophenyl)-3-(2-methyl-6-(thiophen-2-yl)pyridin-3-yl)urea], the melting point lay within 234 to 236 °C. Further, the inhibition at 10 µM in the data set on M14 is under 10%. In addition, in the data set on NCI-H23, the inhibition at 10 µM is under 10%. Further, the “Sensitive cell lines no.” value in data set [1] is on record as 9.

`Cc1nc(-c2ccc(F)cc2)ccc1NC(=O)Nc1cccc(C(F)(F)F)c1` [Compound 5a, 1-(6-(4-Fluorophenyl)-2-methylpyridin-3-yl)-3-(3-(trifluoromethyl)phenyl)urea] showed a melting point of 223 to 225 °C. Further, the inhibition at 10 µM with M14 is over 40%. In addition, the inhibition at 10 µM in the data set on NCI-H23 was determined as 24%. For the same molecule, the “Sensitive cell lines no.” value in data set [1] is on record as 42. Moreover, in data set [1] (mean over NCI panel), the “mean % GI” value stood at 22%.
